Legend:
[1] = system: anti-HCV antibodies (HCV-positive sera); assay: ELISA detection of anti-HCV antibodies in HCV-positive sera with adsorbed peptides; type: binding, human
Method in brief: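 Peptides were adsorbed at 10 μg/ml for 2 h at 37 °C and blocked with 10% goat serum. Sera, first tested at 1/100, were incubated 1 h at 37 °C, detected with peroxidase anti-human IgG and OPD, and read at OD 492 nm (in places ×10^3), in duplicate.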

[2] = system: anti-HCV antibodies binding onto peptide S42G; assay: Inhibition test: inhibition of binding of anti-HCV antibodies onto peptide S42G by preincubation with peptides; set-up: species or system human; details: inhibitor 0.1 mg/ml
Procedure: To evaluate this hypothesis, inhibition tests, whose usefulness lies in the fact that they allow the formation of the antigen-antibody complex in liquid medium, were carried out, thus dispensing with possible artifacts linked to the adsorption of peptides onto a solid support.
The inhibition experiments were carried out by reaction, in liquid phase, of the HCV sera with the peptides followed by reaction of the remaining antibodies with the peptide adsorbed onto the microplates. The inhibitory peptides are incubated at a concentration of 0.1 mg/ml with sera of appropriate dilution. The rest of the manipulation is identical to that described for the ELISA test.
Peptide S18D (SEQ ID NO:11), or V22G (SEQ ID NO:12), or a mixture of both, is preincubated overnight in the presence of the serum to be tested. The antibodies can bind onto the corresponding sites.

Substance: V22G: a peptide of 24 amino acids covering sequence 22 to 45 of the CORE protein (VKFPGGGQIVGGVYLLPRRGPRLG)
- optical density at 492 nm ([1]; Table 2, line 68, serum not named (below CTS), 1/100): 2.500 OD
- optical density at 492 nm ([1]; Table 2, line 69, serum not named (below CTS), 1/1000): 1.605 OD
- optical density at 492 nm ([1]; Table 2, line 70, serum not named (below CTS), 1/10000): 0.255 OD
- optical density at 492 nm ([1]; Table 2, line 75, serum B4, 1/1000): 1.214 OD
- optical density at 492 nm ([1]; Table 2, line 76, serum B4, 1/1000 (so in the source)): 0.144 OD
- optical density at 492 nm ([1]; Table 2, serum B1, 1/100): 1.225 OD
- optical density at 492 nm ([1]; Table 2, serum B2, 1/100): 0.756 OD
- optical density at 492 nm ([1]; Table 2, serum B3, 1/100): 0.329 OD
- optical density at 492 nm ([1]; Table 2, serum B4, 1/100): 2.500 OD
- optical density at 492 nm ([1]; Table 2, serum B5, 1/100): 0.863 OD
- optical density at 492 nm ([1]; Table 2, serum B6, 1/100): 0.749 OD
- optical density at 492 nm ([1]; Table 2, serum B7, 1/100): 2.102 OD
- optical density at 492 nm ([1]; Table 2, serum B8, 1/100): 0.358 OD
- optical density at 492 nm ([1]; Table 2, serum B9, 1/100): 2.082 OD
- optical density at 492 nm ([1]; Table 2, serum B10, 1/100): 0.225 OD
- optical density at 492 nm ([1]; Table 2, serum B11, 1/100): 0.616 OD
- optical density at 492 nm ([1]; Table 2, serum B12, 1/100): 1.017 OD
- optical density at 492 nm ([1]; Table 2, serum B13, 1/100): 0.304 OD
- optical density at 492 nm ([1]; Table 2, serum B14, 1/100): 0.186 OD
- optical density at 492 nm ([1]; Table 2, serum B15, 1/100): 0.954 OD
- optical density at 492 nm ([1]; Table 2, serum B16, 1/100): 2.500 OD
- optical density at 492 nm ([1]; Table 2, serum CTS, 1/100): 2.500 OD
- optical density at 492 nm ([1]; Table 2, serum CTS, 1/1000): 1.155 OD
- optical density at 492 nm ([1]; Table 2, serum CTS, 1/10000): 0.043 OD
- optical density at 492 nm ([1]; Table 2, serum P1, 1/100): 0.426 OD
- optical density at 492 nm ([1]; Table 2, serum P2, 1/100): 0.290 OD
- optical density at 492 nm ([1]; Table 2, serum P3, 1/100): 0.503 OD
- optical density at 492 nm ([1]; Table 2, serum P4, 1/100): 1.739 OD
- optical density at 492 nm ([1]; Table 2, serum P5, 1/100): 2.500 OD
- optical density at 492 nm ([1]; Table 2, serum P5, 1/1000): 2.293 OD
- optical density at 492 nm ([1]; Table 2, serum P5, 1/10000): 0.578 OD
- optical density at 492 nm ([1]; Table 2, serum P6, 1/100): 0.000 OD
- optical density at 492 nm ([1]; Table 2, serum P7, 1/100): 2.500 OD
- optical density at 492 nm ([1]; Table 2, serum P7, 1/1000): 1.590 OD
- optical density at 492 nm ([1]; Table 2, serum P7, 1/10000): 0.237 OD
- optical density at 492 nm ([1]; Table 2, serum P8, 1/100): 2.241 OD
- optical density at 492 nm ([1]; Table 2, serum P8, 1/1000): 0.476 OD
- optical density at 492 nm ([1]; Table 2, serum P8, 1/10000): 0.049 OD
- optical density at 492 nm ([1]; Table 2, serum P9, 1/100): 0.008 OD
- optical density at 492 nm ([1]; Table 2, serum P10, 1/100): 0.026 OD
- optical density at 492 nm ([1]; Table 2, serum P11, 1/100): 2.500 OD
- optical density at 492 nm ([1]; Table 2, serum P12, 1/100): 2.500 OD
- optical density at 492 nm ([1]; Table 2, serum P12, 1/1000): 2.500 OD
- optical density at 492 nm ([1]; Table 2, serum P12, 1/10000): 0.106 OD
- optical density at 492 nm ([1]; Table 2, serum P13, 1/100): 0.013 OD
- optical density at 492 nm ([1]; Table 2, serum P14, 1/100): 1.778 OD
- optical density at 492 nm ([1]; Table 2, serum P15, 1/100): 1.810 OD
- optical density at 492 nm ([1]; Table 2, serum P16, 1/100): 2.500 OD
- optical density at 492 nm ([1]; Table 2, serum P17, 1/100): 1.832 OD
- optical density at 492 nm ([1]; Table 2, serum P18, 1/100): 2.500 OD
- optical density at 492 nm ([1]; Table 2, serum P18, 1/1000): 0.598 OD
- optical density at 492 nm ([1]; Table 2, serum P18, 1/10000): 0.072 OD
- optical density at 492 nm ([1]; Table 2, serum P19, 1/100): 0.010 OD
- optical density at 492 nm ([1]; Table 2, serum P20, 1/100): 2.249 OD
- optical density at 492 nm ([1]; Table 2, serum P21, 1/100): 2.272 OD
- optical density at 492 nm ([1]; Table 2, serum P22, 1/100): 2.500 OD
- optical density at 492 nm ([1]; Table 2, serum P22, 1/1000): 0.702 OD
- optical density at 492 nm ([1]; Table 2, serum P22, 1/10000): 0.088 OD
- optical density at 492 nm ([1]; Table 2, serum P23, 1/100): 0.015 OD
- optical density at 492 nm ([1]; Table 2, serum P24, 1/100): 0.579 OD
- optical density at 492 nm ([1]; Table 2, serum P25, 1/100): 2.252 OD
- optical density at 492 nm ([1]; Table 2, serum P25, 1/1000): 0.695 OD
- optical density at 492 nm ([1]; Table 2, serum P25, 1/10000): 0.089 OD
- optical density at 492 nm ([1]; Table 2, serum P26, 1/100): 2.500 OD
- optical density at 492 nm ([1]; Table 2, serum P26, 1/1000): 1.541 OD
- optical density at 492 nm ([1]; Table 2, serum P26, 1/10000): 0.199 OD
- optical density at 492 nm ([1]; Table 2, serum P27, 1/100): 1.600 OD
- optical density at 492 nm ([1]; Table 2, serum P28, 1/100): 2.500 OD
- optical density at 492 nm ([1]; Table 2, serum P29, 1/100): 0.005 OD
- optical density at 492 nm ([1]; Table 2, serum P30, 1/100): 2.500 OD
- optical density at 492 nm ([1]; Table 2, serum P31, 1/100): 2.500 OD
- optical density at 492 nm ([1]; Table 2, serum P31, 1/1000): 2.500 OD
- optical density at 492 nm ([1]; Table 2, serum P31, 1/10000): 0.847 OD
- optical density at 492 nm ([1]; Table 2, serum P32, 1/100): 1.639 OD
- optical density at 492 nm ([1]; Table 2, serum P33, 1/100): 1.987 OD
- optical density at 492 nm ([1]; Table 2, serum P34, 1/100): 1.618 OD
- optical density at 492 nm ([1]; Table 2, serum P35, 1/100): 1.504 OD
- optical density at 492 nm ([1]; Table 2, serum P36, 1/100): 1.226 OD
- optical density at 492 nm ([1]; Table 2, serum P37, 1/100): 2.500 OD
- optical density at 492 nm ([1]; Table 2, serum P37, 1/1000): 0.865 OD
- optical density at 492 nm ([1]; Table 2, serum P37, 1/10000): 0.128 OD
- optical density at 492 nm ([1]; Table 2, serum P38, 1/100): 2.500 OD
- optical density at 492 nm ([1]; Table 2, serum P38, 1/1000): 1.582 OD
- optical density at 492 nm ([1]; Table 2, serum P38, 1/10000): 0.057 OD
- optical density at 492 nm ([1]; Table 2, serum P39, 1/100): 1.835 OD
- optical density at 492 nm ([1]; Table 2, serum P40, 1/100): 2.500 OD
- optical density at 492 nm ([1]; Table 2, serum P41, 1/100): 2.218 OD
- optical density at 492 nm ([1]; Table 2, serum P42, 1/100): 0.000 OD
- reactivity towards HCV-positive sera ([1]; in words): carry one or more epitopes
- inhibition ([2]; serum B4, 1/10,000): 83.6%
- inhibition ([2]; serum P5, 1/10,000): 83.0%
- inhibition ([2]; serum P7, 1/10,000): 81.0%
- inhibition ([2]; serum P8, 1/10,000): 77.4%
- inhibition ([2]; serum P18, 1/10,000): 48.0%
- inhibition ([2]; serum P22, 1/10,000): 65.5%
- inhibition ([2]; serum P25, 1/10,000): 71.8%
- inhibition ([2]; serum P31, 1/10,000): 39.9%
- inhibition ([2]; serum P37, 1/10,000): 88.7%
- inhibition ([2]; serum P38, 1/10,000): 70.3%
